Results: US20020058686A1, “Medicament” (SmithKline Beecham p.l.c., priority 1990, published 2002)

Compound | melting point
CCCSc1ncc(C[C@H](NC(=O)CCC)C(=O)O)n1Cc1ccccc1Cl [Example 1, 3-[(2-Chlorophenyl)methyl]-2-propylthio-N-butyrylhistidine] | 178 to 181 °C
CCCCc1nc2cc(Br)cc(C(=O)O)c2n1Cc1ccccc1Cl [Example 4, 5-Bromo-2-n-butyl-1-(2-chlorophenyl)methyl-1H-benzimidazole-7-carboxylic Acid] | 254 to 255 °C
